Patent US11679111B2, “Fatty acid synthase inhibitors” (priority 2016, dated 2023)

Assays:
BT474 cells = assay: Caspase 3/7 activity assay; format: cell-based
Procedure: (§1) The assay was performed using a similar protocol to the one described by Fritz et al (Fritz et al., 2001). Cells were seeded at a density of 10,000 cells/well and treated with different concentrations of HS-106 or C75. After 24 hours, to each well, 50 μl of Caspase assay/lysis buffer (50 mM HEPES pH 7.5, 100 mM KCl, 5 mM EDTA, 10 mM MgC12, 10 mM CHAPS, 20% Sucrose, 10 mM DTT, 10 μM of (Z-DEVD)2-Rh110 (Santa Cruz Biotech) and complete protease inhibitor (Roche))was added. After 6 hours of incubation at 37° C., fluorescence was measured at Ex/Em: 485/535 nm.

SKBR3 cells = assay: Caspase 3/7 activity assay; format: cell-based; details: SKBR3, 24 hours
Procedure: as §1

HIV-1 = format: cell-based; details: supernatants on fresh TZM-bl indicator cells
Procedure: (A) TZM-bl cells were transfected with pNL4-3 provirus plasmid for 48 h in the presence or absence of 10 μM Fasnall or C75 or DMSO (0.01%). Intracellular expression of HIV-1 proteins was monitored by HIVIG-western blot, and β-actin was used as loading control. (B) Supernatant associated virion production was monitored using a p24 ELISA. (C) 48 hours post-transfection, cell culture supernatants were removed and incubated with fresh TZM-bl (indicator) cells for an additional 48 hrs. Values expressed as the mean±standard deviation, and are representative of three independent experiments. p-values were generated with student's t-test. Molecular weight markers (kD) indicated in right margin.
To test further the hypothesis that HIV-1 replication requires FASN activity during the late stages of viral replication, TZM-bl or SupT1 (data not shown) cells were transfected with a HIV-1 provirus (pNL43) in the presence or absence of Fasnall or C75. […] Thus, FASN inhibition reduces nascent HIV-1 virion production without reducing HIV-1 protein synthesis.

[1] = tested on: MMTV-Neu model of HER2+ breast cancer; assay: Efficacy in MMTV-Neu model of HER2+ breast cancer; format: in vivo, mice; details: HS-106 30 pmol/kg BIW, Carboplatin 143 pmol/kg weekly, 21 days
[2] = tested on: FASN activity in HepG2 cells; assay: [3H] glucose and acetate incorporation into lipids in HepG2 cells; format: cell-based; details: FIG. 2D, cell line not stated
Procedure: To specifically identify inhibitors of FASN targeting its nucleotide binding pockets Cibacron blue Sepharose was utilized. This medium has been used previously to purify NAD and NADP binding proteins from crude tissues extracts (Miyaguchi et al., 2011; Muratsubaki et al., 1994). FASN enriched extract from lactating pig mammary gland was bound to the resin and labeled with cysteine reactive fluorescein. […] Next, the molecules were tested for their ability to inhibit FASN activity in a HepG2 cell based assay that measured the incorporation of ^3H glucose into lipids (FIG. 1B and FIG. 9).
Incorporation of radiolabeled glucose or acetate in total lipids was measured according to published methods (Haystead and Hardie, 1986). HepG2 cells (80% confluent in 12 wells plates) were starved overnight in MEM Alpha, the medium was then changed with DMEM medium containing 0.1 g/L glucose 10% FBS and 5 μM insulin and 1 μCi 3-[^3H] D-glucose or 1 μCi [^3H]-acetate in addition to different concentrations of each compound. After incubation for 1 hour at 37° C., 5% CO2, the cells were washed with ice cold PBS and detached by treating with 100 μl trypsin for 10 min then 1 ml of ice cold PBS was added. The cells suspension was then sonicated for 3 times in 30 seconds intervals and kept on ice. From each well 1 ml of cell lysate was added to a 4 ml scintillation vial and 2 ml of MicroScint-E was added. The vials were mixed thoroughly then centrifuged for 30 min at 3000 rpm and the ^3H radioactivity was measured by liquid scintillation counting.

`C=C1C(=O)OC(CCCCCCCC)C1C(=O)O` (centres unmarked) [C75, reference compound] was tested, and the “caspase activity relative to MCF10A cells” value (BT474 cells; BT474, 24 hours) was 10 fold, the “caspase activity relative to MCF10A cells” value (SKBR3 cells) was 2 fold and the “number of infectious HIV-1 particles” value (HIV-1) was “similarly reduced the number of infectious HIV-1 particles”.

With `N.N.O=C([O-])C1(C(=O)[O-])CCC1.[Pt+2]` [Carboplatin, reference compound] the “tumors with objective response of stable disease or better” value [1] was 25%.

In the case of `Cc1sc2ncnc(N[C@@H]3CCN(Cc4ccccc4)C3)c2c1C` [HS-79, (R)—N-(1-benzylpyrrolidin-3-yl)-5,6-dimethylthieno[2,3-d]pyrimidin-4-amine], the “inhibition of tritiated acetate incorporation into lipids” value [2] is reported as “inhibit the incorporation of tritiated acetate into lipids”.

`Cc1sc2ncnc(N[C@H]3CCN(Cc4ccccc4)C3)c2c1C` [HS-80, (S)—N-(1-benzylpyrrolidin-3-yl)-5,6-dimethylthieno[2,3-d]pyrimidin-4-amine] was tested, and the “inhibition of tritiated acetate incorporation into lipids” value [2] was “inhibit the incorporation of tritiated acetate into lipids”.

In the case of `CCCCCCC(=O)CCCCCC/C=C/C[C@@H](O)[C@H](O)[C@@](N)(CO)C(=O)O` [Myriocin], the “rescue from Fasnall induced apoptosis by ceramide synthesis inhibitor” value (BT474 cells; BT474, 10 μM pretreatment, 24 hours) is reported as “modestly rescue the cells”.

In the case of `CCCCCCCCCCCCCCOc1ccc(C(=O)O)o1` [TOFA], the “reversal of HS-106 induced caspase 3/7 activity by pretreatment” value (BT474 cells; BT474, 15 μM TOFA pretreatment) is reported as “completely reverse the effect of HS-106”.
